These results are taken from patent publication US7767240B2, “Microbiological control in poultry processing” (priority 2001, dated 2010).

The test system of the assay is total aerobic bacteria. The experiment in a line: Whole bird total aerobic bacteria, chill tank soup at pH 7, 8, 9 (Example 3). The assay is classed as cell-based. To be noted: 50 birds per treatment. On the procedure: This group of tests was conducted to determine the effect of Clorox® bleach, Aquatize® biocide, and 1,3-dibromo-5,5-dimethylhydantoin (DBDMH) on carcass bacteria (Escherichia coli field strain) residual after 1,5-hour in a chill tank “soup”. Tests were conducted with soups at pH 7, pH 8 and pH 9 (adjusted by trisodium phosphate) for whole bird bacteria counts. Tests at pH 8 were conducted for individual bacteria counts.
In general the tests involved normal processing of 56-day-old birds and immersing the carcasses first in a warm bath containing 10^4 per mL Escherichia coli, 10^4 per mL Salmonella enteritidis, 10^4 per mL Pseudomonas aeruginosa, 10^4 per mL Campylobacter jejuni, and 10^4 per mL spoilage bacteria each from […] strains (Listeria monocytogenes and Shigella sonnei). The carcasses were then immersed in a chill tank “soup”, containing normal organic fluids (blood, fat, skin, and meat particles) and containing the microbiocides on the test.
The procedure used for whole bird wash sampling was as follows: • 1. All samples were kept at ≦50 degrees Fahrenheit following collection. • 2. Microbiological analyses of samples began within 24 hours of sample collection. • 3. Information on the individual sample identification, date of collection, time of collection (phase during shift), treatment group and location of sample point were recorded on each sample bottle. • 4. At each defined sample time, carcasses were taken individually from the processing line wearing latex or rubber gloves. The gloves were rinsed with alcohol between each collection. • 5. Any excess fluid was drained off from the carcass. Each individual carcass was transferred to a sterile stomacher bag. • 6. To each carcass contained in the sterile stomacher bag, 400 mL of Butterfield's Phosphate Diluent (BPD) was added while making sure to pour the BPD into the inside of the carcass cavity. The carcass was rinsed inside and out with a rocking motion for one minute (ca. 35 RPM). This was best done by grasping the broiler carcass with one hand and the closed top of the bag with the other then rocking with a reciprocal motion in a 18-24 inch arc, assuring that all surfaces (interior and exterior of the carcass) were rinsed. • 7. The rinse solutions from each stomacher bag was transferred into the sample bottles, taking care to ensure that the information on the date of collection, time of collection (phase during shift), treatment group and location of sampler point matched that of the sample. • 8. Each bottle was sealed with parafilm and placed into a styrene container with crushed or dry ice or frozen freezer packs for overnight delivery to a testing laboratory. • 9. All filled styrene containers were held in a chilled (not below freezing) area until within 1 to 2 hours of courier collection for shipment.
Aerobic plate counts—Counting rules according to BAM 8th ed., Chapter 3.
In greater detail the trial events and experimental design used in this group of tests were as follows: • a) Test microorganisms used were: • Escherichia coli ATCC 11229 • Pseudomonas aeruginosa ATCC 15442 • Salmonella enteritidis ATCC 13076 • Shigella sonnei ATCC 9290 • Listeria monocytogenes ATCC 7644 • Campylobacter jejuni ATCC 29428 • b) Test Procedure: All test strains were grown individually at 35° C. for 24 hours in the media specified in Table 12. Cells were harvested by centrifugation at 10,000×g for 10 minutes and washed twice with Butterfield's Phosphate Buffer (BPB of pH 7.2). Cells were resuspended in BPB to obtain a cell suspension of approximately 1.0×10^8 CFU/mL for each microorganism. The target inoculum levels were approximately 10^6 CFU/mL in the final test solutions. In the cases of S. enteritidis and P. aeruginosa the species were washed by pouring into prepared sterile centrifuge tubes with cheesecloth filters. […]

Regarding `CC1(C)C(=O)N(Br)C(=O)N1Br` [DBDMH, 1,3-dibromo-5,5-dimethylhydantoin], the “Whole Bird Total Aerobic Bacteria (% Reduction)” value is, setting by setting: (Water pH 7, 10 ppm Cl2 equivalent) 85%; (Water pH 7, 20 ppm Cl2 equivalent) 99%; (Water pH 8, 10 ppm Cl2 equivalent) 82%; (Water pH 8, 20 ppm Cl2 equivalent) 98%; (Water pH 9, 10 ppm Cl2 equivalent) 78%; (Water pH 9, 20 ppm Cl2 equivalent) 96%.
